*1 amine or outer side, *2 acyl side, *3 side chain or, on linkers, in order; H or OH if unused. Where a SMILES comes first, the peptide text is derived from it. Bridges are numbered along the chain shown (N, C = ends). [ ]: non-standard residue; d: D form. The star is where a group is joined. ξ: configuration not given here. NMeAbu(3,3-F2-piperidino) = CN[C@@H](CCN1CCCC(F)(F)C1)C(=O)O; Phe(4-COOH) = N[C@@H](Cc1ccc(C(=O)O)cc1)C(=O)O; NMePhe(3-Cl) = CN[C@@H](Cc1cccc(Cl)c1)C(=O)O; Ethyl(2-morpholino) = C1CN(CC*)CCO1; NMeF = CN[C@@H](Cc1ccccc1)C(=O)O; NMeGABA = CN(CCCC(=O)[*:2])[*:1]; NMeI = CC[C@H](C)[C@H](NC)C(=O)O; NMeL = CN[C@@H](CC(C)C)C(=O)O; Butyl(3R-OH) = C[C@@H](O)CC*; Propyl(2R-OH) = C[C@@H](O)C*; NMeV = CN[C@H](C(=O)O)C(C)C; NMeA = CN[C@@H](C)C(=O)O; Piperidide = C1CCN(*)CC1; CH2CMe2OH = CC(C)(O)C*; NBuGly = CCCCNCC(=O)O; Isopentyl = CC(C)CC*; NPrGly = CCCNCC(=O)O; ξV = CC(C)C(N)C(=O)O; ξS = NC(CO)C(=O)O; N(OH)Me = CN(O)*; Sar = CNCC(=O)O; tBu = CC(C)(C)*
Experiment: in vitro
Conditions: human, Caco-2, Caco-2

With `CCCCN1CC(=O)N(C)[C@@H](Cc2ccccc2)C(=O)N(C)[C@@H](CC(C)C)C(=O)N[C@@H](C(C)C)C(=O)N(C)[C@@H](CC(C)C)C(=O)N[C@H](C(=O)N2CCCCC2)CC(=O)N(C)CC(=O)N(C)[C@@H](CC(C)C)C(=O)NC(COCCN2CCOCC2)C(=O)N(C)[C@@H](CC(C)C)C(=O)N[C@@H]([C@@H](C)O)C1=O` (stereo partly drawn) [pd484] ([Sar][NMeL][ξS](Ethyl(2-morpholino))[NMeL]T[NBuGly][NMeF][NMeL]V[NMeL]D-Piperidide; lactam N-11) as the molecule, how does the Papp read?
Its Papp is 1.8 ×10⁻⁶ cm/s.

Which Papp does the source give for `CCCCN1CC(=O)N(C)[C@@H](CCN2CCCC(F)(F)C2)C(=O)N[C@H](C(=O)N2CCCCC2)CC(=O)N(C)[C@@H](C)C(=O)N[C@@H](CC(C)C)C(=O)N(C)[C@@H](CC(C)C)C(=O)N(C)[C@@H](Cc2ccccc2)C(=O)N[C@@H](CC(C)C)C(=O)N(C)[C@@H](Cc2ccccc2)C(=O)N(C)[C@@H](C)C(=O)N[C@@H]([C@@H](C)O)C1=O` [pd392] ([NMeA]L[NMeL][NMeF]L[NMeF][NMeA]T[NBuGly][NMeAbu(3,3-F2-piperidino)]D-Piperidide; lactam N-11) here?
Its Papp is 3.5 ×10⁻⁶ cm/s.

Same assay, conditions: human, Caco-2, Caco-2 (cm/sec)

For `CC(C)C[C@H]1C(=O)NC(C(C)C)C(=O)N(C)[C@@H](Cc2ccccc2)C(=O)N(C)[C@@H](Cc2cccc(Cl)c2)C(=O)N[C@@H](COCC[C@@H](C)O)C(=O)N(C)[C@@H](CC(C)C)C(=O)N[C@@H]([C@@H](C)O)C(=O)N(C)[C@@H](CC(C)C)C(=O)N(C)[C@@H](CC(C)C)C(=O)N[C@H](C(=O)N2CCCCC2)CC(=O)N(C)CCCC(=O)N1C` (stereo partly drawn) [AP111] ([NMeGABA][NMeL][ξV][NMeF][NMePhe(3-Cl)]S(Butyl(3R-OH))[NMeL]T[NMeL][NMeL]D-Piperidide; lactam N-11), which Papp is on record?
The Papp was 0.13 ×10⁻⁶ cm/s.

Which Papp does the source give for `CC[C@H](C)[C@@H]1NC(=O)[C@H](C(C)C)N(C)C(=O)CCCN(C)C(=O)C[C@@H](C(=O)N2CCCCC2)NC(=O)[C@H](CC(C)C)N(C)C(=O)[C@H](C)N(C)C(=O)[C@H](Cc2ccc(O)cc2)NC(=O)[C@H](CC(C)C)N(C)C(=O)[C@H](COC(C)(C)C)NC(=O)[C@H](Cc2ccccc2)N(C)C(=O)[C@H](CC(C)C)N(C)C1=O` [pd125] ([NMeGABA][NMeV]I[NMeL][NMeF]S(tBu)[NMeL]Y[NMeA][NMeL]D-Piperidide; lactam N-11) here?
The Papp was 0.45 ×10⁻⁶ cm/s.

For `CCCN1CC(=O)N(C)[C@@H](Cc2cccc(Cl)c2)C(=O)N(C)[C@@H](CC(C)C)C(=O)N[C@@H](COC(C)(C)C)C(=O)N(C)[C@@H](CC(C)C)C(=O)N[C@H](C(=O)N2CCCCC2)CC(=O)N(C)CC(=O)N(C)[C@@H](Cc2ccccc2)C(=O)N[C@@H](COCC(C)(C)O)C(=O)N(C)[C@@H](CC(C)C)C(=O)N[C@@H]([C@@H](C)O)C1=O` [AP07] ([Sar][NMeF]S(CH2CMe2OH)[NMeL]T[NPrGly][NMePhe(3-Cl)][NMeL]S(tBu)[NMeL]D-Piperidide; lactam N-11), which Papp is on record?
The Papp was 1.3 ×10⁻⁶ cm/s.

For `CC(C)C[C@H]1C(=O)N[C@@H](C(C)C)C(=O)N(C)[C@@H](Cc2ccccc2)C(=O)N(C)[C@@H](Cc2ccccc2)C(=O)N[C@@H](COC(C)(C)C)C(=O)N(C)[C@@H](CC(C)C)C(=O)N[C@@H](COC[C@@H](C)O)C(=O)N(C)[C@@H](CC(C)C)C(=O)N(C)[C@@H](CC(C)C)C(=O)N[C@H](C(=O)N2CCCCC2)CC(=O)N(C)CCCC(=O)N1C` [AP83] ([NMeGABA][NMeL]V[NMeF][NMeF]S(tBu)[NMeL]S(Propyl(2R-OH))[NMeL][NMeL]D-Piperidide; lactam N-11), which Papp is on record?
Its Papp is 1.3 ×10⁻⁶ cm/s.

Which Papp does the source give for `CC[C@H](C)[C@H]1C(=O)N[C@@H](COC[C@@H](C)O)C(=O)N(C)CC(=O)N(C)[C@@H](CC(C)C)C(=O)N[C@H](C(=O)N2CCCCC2)CC(=O)N(C)[C@@H](C)C(=O)N[C@@H](CC(C)C)C(=O)N(C)[C@@H](CC(C)C)C(=O)N(C)[C@@H](Cc2ccccc2)C(=O)N[C@@H](CC(C)C)C(=O)N(C)[C@@H](Cc2ccccc2)C(=O)N1C` [AP85] ([NMeA]L[NMeL][NMeF]L[NMeF][NMeI]S(Propyl(2R-OH))[Sar][NMeL]D-Piperidide; lactam N-11) here?
The Papp was 5.2 ×10⁻⁶ cm/s.

Which Papp does the source give for `CC(C)C[C@@H]1NC(=O)[C@H](CC(C)C)N(C)C(=O)C[C@@H](C(=O)N2CCCCC2)NC(=O)[C@H](CC(C)C)N(C)C(=O)CN(C)C(=O)[C@H]([C@@H](C)O)NC(=O)[C@H](C(C)C)N(C)C(=O)[C@H](CC(C)C)N(C)C(=O)[C@H](Cc2ccc(C(=O)N(C)O)cc2)NC(=O)[C@H](CC(C)C)N(C)C(=O)[C@H](CC(C)C)N(C)C1=O` [AP253] ([NMeL]L[NMeL][NMeL][Phe(4-COOH)](N(OH)Me)[NMeL][NMeV]T[Sar][NMeL]D-Piperidide; lactam N-11) here?
The Papp was 0.12 ×10⁻⁶ cm/s.

For `CCCN1CC(=O)N(C)[C@@H](CC(C)C)C(=O)N[C@@H](COCCC(C)C)C(=O)N(C)[C@@H](Cc2ccccc2)C(=O)N(C)[C@@H](C(C)C)C(=O)N[C@H](C(=O)N2CCCCC2)CC(=O)N[C@H](C(C)C)C(=O)N(C)[C@@H](Cc2ccccc2)C(=O)N[C@@H](COCC(C)(C)O)C(=O)N(C)[C@@H](CC(C)C)C(=O)N[C@@H]([C@@H](C)O)C1=O` [AP01] ([dV][NMeF]S(CH2CMe2OH)[NMeL]T[NPrGly][NMeL]S(Isopentyl)[NMeF][NMeV]D-Piperidide; lactam N-11), which Papp is on record?
Its Papp is 1.4 ×10⁻⁶ cm/s.

Reference: patent publication US20230096766A1, “AMINO ACID HAVING FUNCTIONAL GROUP CAPABLE OF INTERMOLECULAR HYDROGEN BONDING, PEPTIDE COMPOUND CONTAINING SAME AND METHOD FOR PRODUCTION THEREOF” (Chugai Seiyaku Kabushiki Kaisha, priority 2018, published 2023)
